Data reported in PubChem BioAssay AID212 (DTP/NCI, 2004).
Several values for one entry are separate records, joined by “and”; a condition that tells them apart may be missing. Identical values can stand only once. Inconclusive results are not listed.

Test system: BDF1 mice, colon carcinoma 38 sc, T/C %
Assay: NCI In Vivo Anticancer Drug Screen. Data for tumor model Colon Carcinoma 38 (subcutaneous) in B6D2F1 (BDF1) mice
Procedure, shortened: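 T/C readout: treated group (T) measurement over vehicle control group (C) measurement. Endpoint is survival or tumor size in mice bearing a transplanted tumor.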

[1] = endpoint: median tumor weight (est.), dose: 6.25 mg/kg/injection, schedule: Q07DX002 (ip), vehicle: saline, higher = larger tumour
[2] = endpoint: median tumor weight (est.), dose: 25.0 mg/kg/injection, schedule: Q07DX002 (ip), vehicle: saline with Tween-80, higher = larger tumour
[3] = endpoint: median tumor weight (est.), dose: 25.0 mg/kg/injection, schedule: Q07DX002 (ip), vehicle: saline, higher = larger tumour
[4] = endpoint: median tumor weight (est.), dose: 50.0 mg/kg/injection, schedule: Q07DX002 (ip), vehicle: saline with Tween-80, higher = larger tumour
[5] = endpoint: median tumor weight (est.), dose: 50.0 mg/kg/injection, schedule: Q07DX002 (ip), vehicle: saline, higher = larger tumour
[6] = endpoint: median tumor weight (est.), dose: 200.0 mg/kg/injection, schedule: Q07DX002 (ip), vehicle: saline with Tween-80, higher = larger tumour

COc1cccc2c1C(=O)c1c(O)c3c(c(O)c1C2=O)C[C@@](O)(C(C)=O)C[C@@H]3OC1CC(N(C)C)C(O)C(C)O1 (stereo partly drawn)
T/C (endpoint: median survival time, dose: 6.4 mg/kg/injection, schedule: Q07DX002 (iv), vehicle: saline, higher = longer survival): 96 % of control | T/C (endpoint: median survival time, dose: 10.0 mg/kg/injection, schedule: Q07DX002 (iv), vehicle: saline, higher = longer survival): 105 % of control | T/C (endpoint: median tumor weight (est.), dose: 2.25 mg/kg/injection, schedule: Q07DX002 (ip), vehicle: saline, higher = larger tumour): 75 % of control and 89 % of control

NCCCNCCSP(=O)(O)O
T/C [1]: 101 % of control | T/C (endpoint: median tumor weight (est.), dose: 12.5 mg/kg/injection, schedule: Q07DX002 (ip), vehicle: saline, higher = larger tumour): 103 % of control | T/C [2]: 83 % of control | T/C [3]: 81 % of control | T/C [4]: 73 % of control | T/C [5]: 109 % of control | T/C (endpoint: median tumor weight (est.), dose: 100.0 mg/kg/injection, schedule: Q07DX002 (ip), vehicle: saline with Tween-80, higher = larger tumour): 91 % of control | T/C (endpoint: median tumor weight (est.), dose: 100.0 mg/kg/injection, schedule: Q07DX002 (ip), vehicle: saline, higher = larger tumour): 72 % of control | T/C [6]: 82 % of control | T/C (endpoint: median tumor weight (est.), dose: 200.0 mg/kg/injection, schedule: Q07DX002 (ip), vehicle: saline, higher = larger tumour): 76 % of control | T/C (endpoint: median tumor weight (est.), dose: 400.0 mg/kg/injection, schedule: Q07DX002 (ip), vehicle: saline with Tween-80, higher = larger tumour): 82 % of control

NNC(=O)c1ccncc1
T/C (endpoint: median tumor weight (est.), dose: 32.0 mg/kg/injection, schedule: Q07DX002 (ip), vehicle: saline, higher = larger tumour): 118 % of control | T/C (endpoint: median tumor weight (est.), dose: 36.0 mg/kg/injection, schedule: Q07DX002 (ip), vehicle: saline, higher = larger tumour): 77 % of control and 98 % of control | T/C (endpoint: median tumor weight (est.), dose: 64.0 mg/kg/injection, schedule: Q07DX002 (ip), vehicle: saline, higher = larger tumour): 104 % of control | T/C (endpoint: median tumor weight (est.), dose: 72.0 mg/kg/injection, schedule: Q07DX002 (ip), vehicle: saline, higher = larger tumour): 75 % of control and 95 % of control | T/C (endpoint: median tumor weight (est.), dose: 128.0 mg/kg/injection, schedule: Q07DX002 (ip), vehicle: saline, higher = larger tumour): 120 % of control | T/C (endpoint: median tumor weight (est.), dose: 144.0 mg/kg/injection, schedule: Q07DX002 (ip), vehicle: saline, higher = larger tumour): 120 % of control

C/C=C/c1cc2c(c(=O)o1)C(=O)[C@@H](O)[C@H](C)O2
T/C (endpoint: median tumor weight (est.), dose: 12.5 mg/kg/injection, schedule: Q07DX002 (ip), vehicle: saline with Tween-80, higher = larger tumour): 73 % of control and 95 % of control | T/C [2]: 61 % of control and 80 % of control | T/C [4]: 72 % of control and 76 % of control | T/C [6]: 71 % of control and 86 % of control

NC(=O)c1csc(C2OC(CO)C(O)C2O)n1 (stereo not drawn)
T/C (endpoint: median tumor weight (est.), dose: 50.0 mg/kg/injection, schedule: Q07DX002 (ip), vehicle: water, higher = larger tumour): 154 % of control | T/C (endpoint: median tumor weight (est.), dose: 100.0 mg/kg/injection, schedule: Q07DX002 (ip), vehicle: water, higher = larger tumour): 121 % of control and 106 % of control | T/C (endpoint: median tumor weight (est.), dose: 200.0 mg/kg/injection, schedule: Q07DX002 (ip), vehicle: water, higher = larger tumour): 111 % of control and 92 % of control | T/C (endpoint: median tumor weight (est.), dose: 400.0 mg/kg/injection, schedule: Q07DX002 (ip), vehicle: water, higher = larger tumour): 124 % of control and 104 % of control | T/C (endpoint: median tumor weight (est.), dose: 800.0 mg/kg/injection, schedule: Q07DX002 (ip), vehicle: water, higher = larger tumour): 72 % of control

Cc1ccc(NCCN(C)C)c2c(=O)c3cc(O)ccc3sc12
T/C (endpoint: median tumor weight (est.), dose: 100.0 mg/kg/injection, schedule: Q07DX002 (ip), vehicle: Klucel (hydroxypropylcellulose) (HPC), higher = larger tumour): 42 % of control and 48 % of control | T/C (endpoint: median tumor weight (est.), dose: 200.0 mg/kg/injection, schedule: Q07DX002 (ip), vehicle: Klucel (hydroxypropylcellulose) (HPC), higher = larger tumour): 17 % of control

c1cc2n(n1)CCN2
T/C [1]: 76 % of control | T/C (endpoint: median tumor weight (est.), dose: 12.5 mg/kg/injection, schedule: Q07DX003 (ip), vehicle: saline, higher = larger tumour): 110 % of control | T/C (endpoint: median tumor weight (est.), dose: 25.0 mg/kg/injection, schedule: Q01DX005 (ip), vehicle: saline, higher = larger tumour): 86 % of control | T/C (endpoint: median tumor weight (est.), dose: 25.0 mg/kg/injection, schedule: Q04DX003 (ip), vehicle: saline, higher = larger tumour): 84 % of control | T/C [3]: 94 % of control | T/C (endpoint: median tumor weight (est.), dose: 25.0 mg/kg/injection, schedule: Q07DX003 (ip), vehicle: saline, higher = larger tumour): 92 % of control | T/C (endpoint: median tumor weight (est.), dose: 50.0 mg/kg/injection, schedule: Q01DX005 (ip), vehicle: saline, higher = larger tumour): 36 % of control | T/C [5]: 166 % of control | T/C (endpoint: median tumor weight (est.), dose: 50.0 mg/kg/injection, schedule: Q07DX003 (ip), vehicle: saline, higher = larger tumour): 74 % of control | T/C (endpoint: median tumor weight (est.), dose: 100.0 mg/kg/injection, schedule: Q01DX005 (ip), vehicle: saline, higher = larger tumour): 44 % of control | T/C (endpoint: median tumor weight (est.), dose: 100.0 mg/kg/injection, schedule: Q04DX003 (ip), vehicle: saline, higher = larger tumour): 42 % of control | T/C (endpoint: median tumor weight (est.), dose: 100.0 mg/kg/injection, schedule: Q07DX003 (ip), vehicle: saline, higher = larger tumour): 65 % of control | T/C (endpoint: median tumor weight (est.), dose: 200.0 mg/kg/injection, schedule: Q01DX005 (ip), vehicle: saline, higher = larger tumour): 47 % of control | T/C (endpoint: median tumor weight (est.), dose: 200.0 mg/kg/injection, schedule: Q04DX003 (ip), vehicle: saline, higher = larger tumour): 97 % of control | T/C (endpoint: median tumor weight (est.), dose: 200.0 mg/kg/injection, schedule: Q07DX003 (ip), vehicle: saline, higher = larger tumour): 66 % of control | T/C (endpoint: median tumor weight (est.), dose: 400.0 mg/kg/injection, schedule: Q04DX003 (ip), vehicle: saline, higher = larger tumour): 75 % of control | T/C (endpoint: median tumor weight (est.), dose: 400.0 mg/kg/injection, schedule: Q07DX003 (ip), vehicle: saline, higher = larger tumour): 56 % of control
